Patent publication US7452505B2, “Method for analyzing blood test sample and dry analytical element and analytical kit utilizing the method” (Fujifilm Corporation, priority 2002, dated 2008)

Tested on: blood platelet-rich plasma
Test: Evaluation of LDH activity of blood platelet-rich plasma samples with surfactant (JSCC transferable method)
Assay type: cell-based, human
Conditions: sample with 0.6% of surfactant, sample without surfactant taken as 100; 37° C.
Source text: (2) Evaluation of LDH Activity
In Table 2, “LDH activity” means the activity of the test sample with 0.6% of surfactant, assuming that that of the test sample without surfactant to be 100.

| Compound | LDH Activity |
| --- | --- |
| C[C@H](CCC(=O)O)[C@H]1CC[C@H]2[C@@H]3CC[C@@H]4C[C@H](O)CC[C@]4(C)[C@H]3C[C@H](O)[C@]12C [deoxycholic acid, reference compound] | 199 |
| POE (5) oleylether [EMALEX 505] | 295 |
| POE (6) perfluoroalkyl ethoxylate [Example F-1405] | 102 |
| POE (10) octylether [Nissan Nonion] | 694 |
| POE (10) perfluoroalkyl [Example F-142D] | 104 |
| POE (12) oleylether [EMALEX 512] | 307 |
| POE (20) oleylether [EMALEX 520] | 297 |
| sodium α-olefin sufonate [NIKKOL OS-14] | 212 |
